According to ChEMBL document CHEMBL1141107, “A novel series of non-carboxylic acid, non-hydantoin inhibitors of aldose reductase with potent oral activity in diabetic rat models: 6-(5-chloro-3-methylbenzofuran-2-sulfonyl)-2H-pyridazin-3-one and congeners” (J Med Chem, 2005):

Experiments:
Rattus norvegicus [1] = assay: Inhibition of sorbitol accumulation in diabetic rat by acute test dosed at 60 mg/kg; format: functional
[2] = target: Aldo-keto reductase family 1 member B1 (Homo sapiens, UniProt P15121); assay: In vitro inhibitroy concentration against Aldose reductase incubated at 24 degree C for 15 minutes in pH 7.0
[3] = Maximum plasma concentration in rat was determined; format: ADME, organism-based
Rattus norvegicus [4] = assay: Dose required for fructose accumulation in diabetic rat after oral gavage administration incubated at RT for 60 minutes in pH 4.5 by acute test; format: functional
Rattus norvegicus [5] = species: Rattus norvegicus; assay: Dose required for inhibition of sorbitol accumulation in diabetic rat by acute test; format: functional
Rattus norvegicus [6] = species: Rattus norvegicus; assay: Inhibition of sorbitol accumulation in diabetic rat by chronic test; format: functional
Rattus norvegicus [7] = species: Rattus norvegicus; assay: Inhibition of sorbitol accumulation in diabetic rat by acute test; format: functional
Rattus norvegicus [8] = assay: Inhibition of fructose accumulation in diabetic rat after oral gavage administration incubated at RT for 60 minutes in pH 4.5 by acute test dosed at 3 mg/kg; format: functional; conditions: 1 h
Rattus norvegicus [9] = assay: Inhibition of sorbitol accumulation in diabetic rat by chronic test dosed at 1 mg/kg; format: functional
Rattus norvegicus [10] = assay: Inhibition of sorbitol accumulation in diabetic rat by acute test dosed at 10 mg/kg; format: functional
Rattus norvegicus [11] = assay: Inhibition of fructose accumulation in diabetic rat after oral gavage administration, pH 4.5 by chronic test dosed at 1 mg/kg; format: functional
Rattus norvegicus [12] = assay: Inhibition of fructose accumulation in diabetic rat after oral gavage administration incubated at RT for 60 minutes in pH 4.5 by acute test dosed at 1 mg/kg; format: functional; conditions: 1 h
Rattus norvegicus [13] = species: Rattus norvegicus; assay: Dose required for sorbitol accumulation in diabetic rat by chronic test; format: functional
Rattus norvegicus [14] = assay: Inhibition of fructose accumulation in diabetic rat after oral gavage administration incubated at RT for 60 minutes in pH 4.5 by acute test dosed at 10 mg/kg; format: functional; conditions: 1 h
Rattus norvegicus [15] = assay: Inhibition of fructose accumulation in diabetic rat after oral gavage administration, pH 4.5 by chronic test dosed at 10 mg/kg; format: functional
Rattus norvegicus [16] = assay: Inhibition of sorbitol accumulation in diabetic rat by acute test dosed at 3 mg/kg; format: functional
Rattus norvegicus [17] = assay: Inhibition of sorbitol accumulation in diabetic rat by chronic test dosed at 10 mg/kg; format: functional
Rattus norvegicus [18] = assay: Inhibition of fructose accumulation in diabetic rat after oral gavage administration, pH 4.5 by chronic test dosed at 3 mg/kg; format: functional
Rattus norvegicus [19] = assay: Inhibition of sorbitol accumulation in diabetic rat by chronic test dosed at 3 mg/kg; format: functional
Rattus norvegicus [20] = assay: Inhibition of sorbitol accumulation in diabetic rat by acute test dosed at 1 mg/kg; format: functional
Rattus norvegicus [21] = species: Rattus norvegicus; assay: Dose required for sorbitol accumulation in diabetic rat by chronic test
Rattus norvegicus [22] = assay: Dose required for fructose accumulation in diabetic rat after oral gavage administration, pH 4.5 by chronic test; format: functional
Rattus norvegicus [23] = assay: Dose required for fructose accumulation in diabetic rat after oral gavage administration incubated at RT for 60 minutes in pH 4.5 by acute test; conditions: 1 h
Rattus norvegicus [24] = assay: Inhibition of sorbitol accumulation in diabetic rat by acute test dosed at 50 mg/kg; format: functional
Rattus norvegicus [25] = assay: Inhibition of fructose accumulation in diabetic rat after oral gavage administration incubated at RT for 60 minutes in pH 4.5 by acute test dosed at 50 mg/kg; format: functional; conditions: 1 h
Rattus norvegicus [26] = assay: Inhibition of fructose accumulation in diabetic rat after oral gavage administration incubated at RT for 60 minutes in pH 4.5 by acute test dosed at 25 mg/kg; format: functional; conditions: 1 h
Rattus norvegicus [27] = assay: Dose required for fructose accumulation in diabetic rat after oral gavage administration incubated at RT for 60 minutes in pH 4.5 by acute; format: functional
Rattus norvegicus [28] = assay: Inhibition of sorbitol accumulation in diabetic rat by acute test dosed at 25 mg/kg; format: functional

Structure (SMILES) | IC50 [2] [nM] | ED50 (Rattus norvegicus [4]) [mg/kg] | ED50 (Rattus norvegicus [5]) [mg/kg] | inhibition in vivo at 3 mg/kg (Rattus norvegicus [8]) [%] | inhibition in vivo at 1 mg/kg (Rattus norvegicus [9]) [%] | inhibition in vivo at 10 mg/kg (Rattus norvegicus [10]) [%] | inhibition in vivo at 1 mg/kg (Rattus norvegicus [11]) [%] | inhibition in vivo at 10 mg/kg (Rattus norvegicus [14]) [%] | inhibition in vivo at 10 mg/kg (Rattus norvegicus [15]) [%] | inhibition in vivo at 3 mg/kg (Rattus norvegicus [16]) [%] | inhibition in vivo at 10 mg/kg (Rattus norvegicus [17]) [%] | inhibition in vivo at 3 mg/kg (Rattus norvegicus [18]) [%] | inhibition in vivo at 3 mg/kg (Rattus norvegicus [19]) [%] | inhibition in vivo at 1 mg/kg (Rattus norvegicus [20]) [%] | further results
O=c1ccc(S(=O)(=O)Cc2ccccc2)n[nH]1 | 600 | – | – | – | – | – | – | – | – | – | – | – | – | – | inhibition in vivo at 60 mg/kg (Rattus norvegicus [1]): 73%
Cc1c(S(=O)(=O)c2ccc(=O)[nH]n2)oc2ccc(Cl)cc12 | 1 | 0.8 | 0.2 | – | – | – | – | – | – | – | – | – | – | – | Cmax [3]: 9000 ng/mL
O=S(=O)(c1ccccc1)c1ccc(S(=O)(=O)c2ccccc2)nn1 | – | – | – | – | – | – | – | – | – | – | – | – | – | – | Inhibition (Rattus norvegicus [6]): 50%; Inhibition (Rattus norvegicus [7]): 58%
Cc1c(S(=O)(=O)c2ccc(O)nn2)oc2ccc(F)cc12 | 3 | 5.8 | 1.2 | 42 | 52 | 84 | 17 | 62 | 90 | 66 | 100 | 64 | 86 | 47 | inhibition in vivo at 1 mg/kg (Rattus norvegicus [12]): 11%; ED50 (Rattus norvegicus [13]): 1 mg/kg
Cc1c(S(=O)(=O)c2ccc(O)nn2)oc2ccc(C(F)(F)F)cc12 | 5 | – | 1.3 | 79 | 75 | 101 | 54 | – | 100 | 91 | 102 | 81 | 95 | 43 | ED50 (Rattus norvegicus [21]): < 1 mg/kg; ED50 (Rattus norvegicus [22]): 1 mg/kg; ED50 (Rattus norvegicus [23]): 2 mg/kg
O=S(=O)(c1ccccc1)c1ccc(O)nn1 | – | – | 15 | – | – | 40 | – | 14 | – | – | – | – | – | – | inhibition in vivo at 50 mg/kg (Rattus norvegicus [24]): 95%; inhibition in vivo at 50 mg/kg (Rattus norvegicus [25]): 74%; inhibition in vivo at 25 mg/kg (Rattus norvegicus [26]): 49%; ED50 (Rattus norvegicus [27]): 25 mg/kg; inhibition in vivo at 25 mg/kg (Rattus norvegicus [28]): 73%
